Values of other authors, collected in patent US5756661A, “Pentaclethra macroloba derived substances having insecticide, agglutination and aminopeptidase inhibition activity” (Pioneer Hi-Bred International, Inc., priority 1996, dated 1998).

Test system: aminopeptidases
Conditions: references 13, 1

| SMILES | inhibition of the activity of several aminopeptidases |
| --- | --- |
| CC(C)C[C@@H](N)[C@H](O)C(=O)N[C@H](C(=O)N[C@H](C(=O)N[C@@H](CC(=O)O)C(=O)O)C(C)C)C(C)C [amastatin] | completely inhibit |
| CC(C)C[C@H](NC(=O)[C@@H](O)[C@H](N)Cc1ccccc1)C(=O)O [bestatin] | completely inhibit |
